Experimental data taken from PMC11310889, “Ribosomal translation of fluorinated non-canonical amino acids for de novo biologically active fluorinated macrocyclic peptides” (Chemical Science, 2024).

How the values were obtained:
[1] = system: E. coli W3110; assay: Propidium iodide (PI) assay of membrane permeability; format: cell-based, Escherichia coli; conditions: E. coli W3110 logarithmic-phase, 15 min treatment with 5 μM peptide, PI 25 μg/mL 15 min (Fig. 5A)
Method: Propidium Iodide (PI) assay
Thaw the previously preserved E. coli W3110 cells from the -80 °C freezer. Scrape a small amount and inoculate it into 1 mL of LB liquid medium. Culture overnight in a 37°C shaker. Next day, inoculate the strain into fresh LB liquid medium at a 1:100 ratio and incubate at 37 °C until the OD600 reaches approximately 0.47 to 0.53. Take 100 μL of the E. coli W3110 cells and centrifuge for 2 min at 13,000 rpm. Discard the supernatant. For the untreated group, resuspend the cells in 100 μL of PBS. For the peptide treatment group, resuspend the cells in 99 μL of ddH2O and add 1 […]
μL of 0.5 mM of the different peptides. Mix thoroughly and let react for 15 min. After the treatment, take 80 μL of each sample and incubate with PI at a final concentration of 25 μg/mL for 15 min.
After incubation, wash the samples with the same amount of PBS, centrifuge, and resuspend at a 10-fold concentration. Observe the images using a Nikon Eclipse Ci-L Plus microscope. […]
Incubate overnight in a 37°C shaker. […]
Centrifuge again at
6100g for 10 min, discard the supernatant, and add 500 μL of ddH2O containing 2.5% glutaraldehyde. Resuspend and fix the cells overnight at 4°C. Centrifuge at 6100g for 10 min, remove the supernatant, and wash twice with ddH2O, letting it stand for 15 min each time, followed by centrifugation at 6100g for 10 min. Discard the supernatant. Dehydrate the sample with ethanol at concentration gradients of 30%, 60%, and 90%, without resuspension, centrifuging at 6100g for […]

[2] = system: E. coli W3110; assay: Scanning electron microscopy of cell morphology; format: cell-based, Escherichia coli; conditions: E. coli W3110 logarithmic-phase, 4 h treatment at 2 μM and 5 μM (Fig. 5B, S11)
Method: Thaw the previously preserved E. coli W3110 cells from the -80 °C freezer. […]
Scanning electron microscopy
Thaw the previously preserved E. coli W3110 cells from the -80°C freezer. Scrape a small amount and inoculate it into 1 mL of LB liquid medium. Incubate overnight in a 37°C shaker. The next day, inoculate the strain into fresh LB liquid medium at a 1:100 ratio and incubate at 37°C until the OD600 reaches approximately 0.47 to 0.53. Take 500 μL of E. coli W3110 cells, centrifuge for 10 min at 4000 rpm, and discard the supernatant. Resuspend the cells in 500 μL of PBS, then centrifuge again at 4000 rpm for 10 min and discard the supernatant. Dissolve various macrocyclic peptides in DMSO and dilute to the required concentration. Resuspend the untreated group in 500 μL of PBS.
For the peptide treatment group, resuspend in 495 μL of ddH2O, add 5 μL of 0.2 mM or 0.5 mM peptides, mix well, and let react for 4 h.
After the treament, spot 4 μL of the sample on plates. Perform the first ten-fold dilution and mix, then continue with the second to fifth ten-fold dilutions. Incubate the plates inverted overnight in a 37°C incubator. Scan and count the colonies. For the remaining 492 μL, centrifuge at 6100g for 10 min, discard the supernatant, add 500 μL of ddH2O, and let it stand for 15 min. Centrifuge again at 6100g for 10 min, discard the supernatant, and add 500 μL of ddH2O containing 2.5% glutaraldehyde. Resuspend and fix the cells overnight at 4°C. Centrifuge at 6100g for 10 min, remove the supernatant, and wash twice with ddH2O, letting it stand for 15 min each time, followed by centrifugation at 6100g for 10 min. Discard the supernatant. Dehydrate the sample with ethanol at concentration gradients of 30%, 60%, and 90%, without resuspension, centrifuging at 6100g for […]
10 min and discarding the supernatant after each step. Finally, use 100% ethanol, rest for 15 min, centrifuge at 6100g for 10 min, discard the supernatant, and repeat with 100% ethanol, leaving about 10 μL. Then the critical point was dried and sprayed with gold, and the images were observed by […]
Prediction of binding sites between peptides and the BAM complex
Firstly, the fpocket algorithm was used, a rapid method for pocket prediction based on the three-dimensional structure of BAM complex (PDB ID: 5AYW). This method establishes a grid surrounding the protein, positioning alpha spheres on grid points devoid of spatial conflicts with protein atoms, subsequently utilizing a clustering algorithm to ascertain whether these regions constitute potential binding pockets. Alpha spheres were designated with radii ranging from 3.4Å to 6.2Å, with a prerequisite of at least 15 alpha spheres for a region to be considered a pocket. […]
PepNN evaluated each amino acid for its potentiality as a peptide binding site. […]

[3] = system: Gram-negative bacteria; conditions: cited from earlier work
Description: Furthermore, conjugating the R9 peptide to antimicrobial peptides enhances antibacterial activity, particularly increasing effectiveness against Gram-negative bacteria.[49–51] ...

nona-arginine [R9, reference compound]
PI red fluorescence (cell membrane permeability) [1]: weak red fluorescence | morphological changes by scanning electron microscopy [2]: slight shrinkage and partial rupture | anti-Gram-negative bacterial activity [3]: low anti-Gram-negative bacterial activity
